Activity calls are given as the source filed them.
Legend:
[1] = target: Serine/threonine-protein kinase Chk1 (Homo sapiens, UniProt O14757); type: functional;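 note: measured as one member of a kinome-wide kinase profiling panel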
[2] = target: Cyclin-dependent kinase 19 (Homo sapiens, UniProt Q9BWU1); assay: Navigating the Kinome. Panel member name: CDC2L6; type: functional
[3] = inhibitors of clade B AD8 Env fusion, dose response, cell-based, cherry-pick (AID 652062); type: functional;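 note: luciferase signal from cell-cell fusion driven by HIV-1 clade B AD8 Env; potency is for inhibitors of fusion seen as a drop in luminescence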
[4] = target: ATP-dependent molecular chaperone HSP82 (Candida albicans (strain WO-1) (Yeast), UniProt C4YTQ8); assay: loss of DOC-induced GRE-beta-galactosidase reporter signal, dose response, Hsp90 inhibitor project, S. cerevisiae, luminescence (AID 2400); type: functional, cell-based;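 note: beta-galactosidase luminescence from glucocorticoid response element reporter as proxy for Hsp90 function; inhibitor potency where signal loss means Hsp90 inhibition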
Chain of ATP-dependent molecular chaperone HSP82 (C4YTQ8 whole entry): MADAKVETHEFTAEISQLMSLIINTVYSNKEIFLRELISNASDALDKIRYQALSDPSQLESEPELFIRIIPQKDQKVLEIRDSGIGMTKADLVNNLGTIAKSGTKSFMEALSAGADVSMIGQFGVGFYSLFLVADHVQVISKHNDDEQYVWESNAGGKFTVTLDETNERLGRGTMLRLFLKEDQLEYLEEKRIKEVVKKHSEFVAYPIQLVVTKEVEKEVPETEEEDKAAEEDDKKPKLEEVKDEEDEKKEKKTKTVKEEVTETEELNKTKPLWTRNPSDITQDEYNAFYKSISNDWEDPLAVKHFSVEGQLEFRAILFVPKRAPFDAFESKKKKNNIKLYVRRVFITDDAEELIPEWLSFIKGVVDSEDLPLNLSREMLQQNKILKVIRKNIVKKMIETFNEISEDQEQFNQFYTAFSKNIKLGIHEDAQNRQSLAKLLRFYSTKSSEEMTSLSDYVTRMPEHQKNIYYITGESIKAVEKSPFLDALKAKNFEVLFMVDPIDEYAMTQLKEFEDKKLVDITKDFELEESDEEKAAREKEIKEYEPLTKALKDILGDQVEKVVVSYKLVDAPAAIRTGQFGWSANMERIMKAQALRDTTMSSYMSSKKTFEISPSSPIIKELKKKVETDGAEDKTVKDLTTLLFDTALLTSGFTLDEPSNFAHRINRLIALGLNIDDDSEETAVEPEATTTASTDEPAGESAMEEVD

cells = type: functional, cell-based
[5] = Counterscreen for AddAB inhibitors: absorbance-based bacterial cell-based high throughput dose response assay for inhibitors of bacterial viability. [Related pubchem assays (depositor defined):AID435030, AID449728, AID449731, AID488942, AID488955, AID488956]; type: functional
[6] = ZM109 Env clade C HIV-1 fusion inhibitors, dose response, HeLa effector, CEM target cells, luciferase, cherry-pick (AID 652058); type: functional, cell-based
[7] = target: Platelet-derived growth factor receptor beta (Homo sapiens, UniProt P09619); type: functional;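 note: value comes from a kinome panel, with PDGFRB tested as one panel member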
[8] = target: Protein kinase C theta type (Homo sapiens, UniProt Q04759); assay: Navigating the Kinome. Panel member name: PRKCQ; type: functional
Chain of Protein kinase C theta type (Q04759 whole entry): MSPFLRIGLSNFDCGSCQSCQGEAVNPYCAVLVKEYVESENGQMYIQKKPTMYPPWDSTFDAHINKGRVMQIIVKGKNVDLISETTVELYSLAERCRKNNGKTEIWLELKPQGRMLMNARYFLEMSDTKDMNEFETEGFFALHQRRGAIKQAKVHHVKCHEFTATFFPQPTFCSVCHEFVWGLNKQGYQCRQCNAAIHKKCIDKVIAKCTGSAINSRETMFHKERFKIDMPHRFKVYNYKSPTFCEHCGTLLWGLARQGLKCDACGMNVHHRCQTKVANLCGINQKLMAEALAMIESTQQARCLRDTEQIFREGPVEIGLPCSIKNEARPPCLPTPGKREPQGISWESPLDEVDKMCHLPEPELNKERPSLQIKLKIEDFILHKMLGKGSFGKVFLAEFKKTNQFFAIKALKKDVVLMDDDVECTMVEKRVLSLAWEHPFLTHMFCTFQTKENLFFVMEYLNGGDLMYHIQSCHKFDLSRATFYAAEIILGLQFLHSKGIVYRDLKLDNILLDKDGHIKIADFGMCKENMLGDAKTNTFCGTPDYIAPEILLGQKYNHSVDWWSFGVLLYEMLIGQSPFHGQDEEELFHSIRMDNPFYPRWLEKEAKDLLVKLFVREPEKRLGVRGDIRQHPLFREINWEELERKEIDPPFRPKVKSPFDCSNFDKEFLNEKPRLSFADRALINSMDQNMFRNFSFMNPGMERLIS

[9] = target: Mitogen-activated protein kinase 14 (Homo sapiens, UniProt Q16539); type: functional;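 note: part of a kinome-wide panel, MAPK14 entry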
Focal adhesion kinase 1 = Focal adhesion kinase 1 (Homo sapiens, UniProt Q05397); type: functional;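 note: measured as one member of a kinome panel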
Chain of Focal adhesion kinase 1 (Q05397 whole entry): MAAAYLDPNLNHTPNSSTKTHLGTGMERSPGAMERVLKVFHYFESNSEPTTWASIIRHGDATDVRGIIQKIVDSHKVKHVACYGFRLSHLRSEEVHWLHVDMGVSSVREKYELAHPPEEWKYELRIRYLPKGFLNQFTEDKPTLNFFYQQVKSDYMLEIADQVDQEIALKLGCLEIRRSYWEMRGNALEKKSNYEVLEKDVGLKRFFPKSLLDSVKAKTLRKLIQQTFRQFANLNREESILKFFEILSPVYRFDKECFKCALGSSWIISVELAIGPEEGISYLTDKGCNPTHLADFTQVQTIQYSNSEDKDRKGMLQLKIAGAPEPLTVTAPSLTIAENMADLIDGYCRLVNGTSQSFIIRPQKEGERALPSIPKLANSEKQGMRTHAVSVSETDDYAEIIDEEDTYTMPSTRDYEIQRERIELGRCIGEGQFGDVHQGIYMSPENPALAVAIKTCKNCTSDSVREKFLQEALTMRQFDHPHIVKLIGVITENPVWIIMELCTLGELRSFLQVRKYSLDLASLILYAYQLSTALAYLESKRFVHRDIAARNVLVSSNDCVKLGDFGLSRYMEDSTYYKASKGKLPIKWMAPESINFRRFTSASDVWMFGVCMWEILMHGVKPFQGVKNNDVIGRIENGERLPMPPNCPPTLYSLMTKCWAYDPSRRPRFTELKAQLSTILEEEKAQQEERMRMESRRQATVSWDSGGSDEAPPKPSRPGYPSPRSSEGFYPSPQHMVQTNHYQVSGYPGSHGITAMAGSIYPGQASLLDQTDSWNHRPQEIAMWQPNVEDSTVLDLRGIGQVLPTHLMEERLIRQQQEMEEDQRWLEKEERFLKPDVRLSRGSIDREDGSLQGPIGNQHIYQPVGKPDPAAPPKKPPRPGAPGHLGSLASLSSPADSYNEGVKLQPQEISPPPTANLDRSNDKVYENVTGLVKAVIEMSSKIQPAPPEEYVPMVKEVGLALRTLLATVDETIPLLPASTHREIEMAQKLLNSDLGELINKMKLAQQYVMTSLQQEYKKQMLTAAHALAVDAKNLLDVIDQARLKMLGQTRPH

[10] = target: Mitogen-activated protein kinase kinase kinase kinase 4 (Homo sapiens, UniProt O95819); type: functional
[11] = HEK293T cytotoxicity, dose response, cytotoxicity control for miR-122 modulator project, cell-based, inhibitor set, cherry-pick, set 2 (AID 720697); type: functional
[12] = HEK293T cytotoxicity, dose response, cytotoxicity control for miR-122 modulator project, cell-based, activator set, cherry-pick (AID 720690); type: functional;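 note: HEK293T human cells scored for general mammalian cytotoxicity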
[13] = Intein inhibitors as potential Tuberculosis drugs, a cytotoxicity screen. [Related pubchem assays (depositor defined):AID2221, AID2223, AID434968, AID435010, AID449749, AID449750, AID489010]; type: functional
[14] = target: T1, Orexin/Hypocretin receptor type 1 (Homo sapiens, UniProt O43613); assay: Homogeneous Time Resolved Fluorescence (HTRF)-based cell-based high throughput dose response assay for antagonists of the orexin 1 receptor (OX1R; HCRTR1). [Related pubchem assays (depositor defined):AID434989, AID435008, AID463079, AID485270, AID492963, AID492964, AID492965, AID493232, AID504717, AID504718]; type: functional;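 note: antagonism measured against Orexin-A challenge at about its EC80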
T1 sequence (O43613 whole entry): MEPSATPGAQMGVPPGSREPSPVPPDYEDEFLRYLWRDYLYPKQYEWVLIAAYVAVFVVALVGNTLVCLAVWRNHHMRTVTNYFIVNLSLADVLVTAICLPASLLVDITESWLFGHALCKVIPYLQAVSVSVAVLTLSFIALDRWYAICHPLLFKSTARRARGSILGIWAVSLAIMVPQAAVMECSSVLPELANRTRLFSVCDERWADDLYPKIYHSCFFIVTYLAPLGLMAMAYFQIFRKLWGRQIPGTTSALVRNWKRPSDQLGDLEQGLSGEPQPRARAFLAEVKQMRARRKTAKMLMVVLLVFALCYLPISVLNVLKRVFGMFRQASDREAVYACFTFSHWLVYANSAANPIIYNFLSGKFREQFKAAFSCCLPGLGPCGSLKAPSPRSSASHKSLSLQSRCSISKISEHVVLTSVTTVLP

Orexin receptor type 2 = Orexin receptor type 2 (Homo sapiens, UniProt O43614); assay: Counterscreen assay for antagonists of the orexin 1 receptor (OX1R; HCRTR1): Fluorescence-based cell-based dose response assay for antagonists of the orexin 2 receptor (OX2R; HCRTR2), run by assay provider.; type: functional
Chain of Orexin receptor type 2 (O43614 whole entry, the tested form may be a part): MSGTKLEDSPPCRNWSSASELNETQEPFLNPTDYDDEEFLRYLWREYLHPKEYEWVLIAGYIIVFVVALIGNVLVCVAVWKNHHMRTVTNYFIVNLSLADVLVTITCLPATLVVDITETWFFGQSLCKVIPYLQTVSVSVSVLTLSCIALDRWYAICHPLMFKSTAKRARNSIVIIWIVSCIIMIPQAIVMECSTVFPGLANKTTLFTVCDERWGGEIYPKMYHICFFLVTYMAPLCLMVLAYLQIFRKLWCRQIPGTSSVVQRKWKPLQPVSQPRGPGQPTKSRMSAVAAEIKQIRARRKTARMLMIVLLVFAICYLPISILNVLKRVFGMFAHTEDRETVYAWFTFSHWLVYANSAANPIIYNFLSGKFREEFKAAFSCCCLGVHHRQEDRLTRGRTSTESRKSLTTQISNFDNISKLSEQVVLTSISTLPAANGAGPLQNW

CHO = assay: cytotoxicity in TLR9-MyD88 CHO cells, dose response, cytotoxicity control for TLR9-MyD88 binding inhibitor project, cell-based, luminescence (AID 588339); type: functional, hamster; conditions: Cricetulus griseus;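 note: CHO cells stably coexpressing TLR9 and MyD88 fusions from primary screen; compound exposure lasted 48 hours before viability readout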
CHO-K1 = assay: Counterscreen for antagonists of the orexin 1 receptor (OX1R; HCRTR1): Homogeneous time resolved fluorescence (HTRF)-based cell-based dose response assay to identify antagonists of the parental CHO-K1 cell line. [Related pubchem assays (depositor defined):AID434989, AID435008, AID463079, AID485270, AID492963, AID492964, AID492965, AID493232, AID504699, AID504701]; type: functional; conditions: Cricetulus griseus;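 note: potency for inhibition of ATP-stimulated IP1 production as antagonists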
Protein RecA = target: T2, Protein RecA (Mycobacterium tuberculosis, UniProt P9WHJ3); assay: Fluorescence Cell-Free Homogeneous Dose Retest to Identify Inhibitors of RecA-Intein Splicing Activity. [Related pubchem assays (depositor defined):AID2097, AID2223, AID489010, AID492950]; type: functional
T2 sequence (P9WHJ3 whole entry): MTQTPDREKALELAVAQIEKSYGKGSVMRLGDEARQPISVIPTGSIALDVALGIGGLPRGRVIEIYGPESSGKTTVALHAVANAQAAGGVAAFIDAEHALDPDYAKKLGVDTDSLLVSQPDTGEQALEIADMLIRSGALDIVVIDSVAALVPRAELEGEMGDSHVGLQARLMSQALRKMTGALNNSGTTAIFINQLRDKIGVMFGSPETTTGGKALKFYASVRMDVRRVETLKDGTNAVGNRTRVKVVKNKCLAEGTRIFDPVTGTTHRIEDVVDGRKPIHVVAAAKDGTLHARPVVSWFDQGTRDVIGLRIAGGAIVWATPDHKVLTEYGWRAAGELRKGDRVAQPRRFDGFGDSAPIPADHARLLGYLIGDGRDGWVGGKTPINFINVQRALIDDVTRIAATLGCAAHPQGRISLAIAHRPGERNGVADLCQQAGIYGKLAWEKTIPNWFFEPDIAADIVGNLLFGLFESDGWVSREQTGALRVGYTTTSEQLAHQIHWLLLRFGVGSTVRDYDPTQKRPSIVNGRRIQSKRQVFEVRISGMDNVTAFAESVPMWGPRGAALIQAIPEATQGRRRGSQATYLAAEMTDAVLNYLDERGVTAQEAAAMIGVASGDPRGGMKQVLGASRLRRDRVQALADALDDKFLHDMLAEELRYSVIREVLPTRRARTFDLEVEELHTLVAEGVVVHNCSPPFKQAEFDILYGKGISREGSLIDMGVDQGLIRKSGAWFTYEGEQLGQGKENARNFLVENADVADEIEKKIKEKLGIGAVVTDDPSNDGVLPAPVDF

SUMO-activating enzyme [15] = target: T3, SUMO-activating enzyme (Homo sapiens, UniProt Q9UBT2); assay: SUMOylation inhibitor hit validation, confirmation, SUMOylation inhibitor project, biochemical, AlphaScreen (AID 2018); type: functional
T3 sequence (Q9UBE0 whole entry): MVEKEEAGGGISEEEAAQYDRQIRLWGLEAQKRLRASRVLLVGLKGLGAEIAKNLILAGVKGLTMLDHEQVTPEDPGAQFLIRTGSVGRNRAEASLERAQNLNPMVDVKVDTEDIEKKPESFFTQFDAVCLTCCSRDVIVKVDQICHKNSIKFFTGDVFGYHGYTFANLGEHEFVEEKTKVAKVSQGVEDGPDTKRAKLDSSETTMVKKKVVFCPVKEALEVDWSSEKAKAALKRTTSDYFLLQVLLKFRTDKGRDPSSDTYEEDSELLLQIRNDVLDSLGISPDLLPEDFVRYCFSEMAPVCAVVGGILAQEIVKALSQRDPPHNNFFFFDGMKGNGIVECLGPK
T3 sequence (Q9UBT2 whole entry): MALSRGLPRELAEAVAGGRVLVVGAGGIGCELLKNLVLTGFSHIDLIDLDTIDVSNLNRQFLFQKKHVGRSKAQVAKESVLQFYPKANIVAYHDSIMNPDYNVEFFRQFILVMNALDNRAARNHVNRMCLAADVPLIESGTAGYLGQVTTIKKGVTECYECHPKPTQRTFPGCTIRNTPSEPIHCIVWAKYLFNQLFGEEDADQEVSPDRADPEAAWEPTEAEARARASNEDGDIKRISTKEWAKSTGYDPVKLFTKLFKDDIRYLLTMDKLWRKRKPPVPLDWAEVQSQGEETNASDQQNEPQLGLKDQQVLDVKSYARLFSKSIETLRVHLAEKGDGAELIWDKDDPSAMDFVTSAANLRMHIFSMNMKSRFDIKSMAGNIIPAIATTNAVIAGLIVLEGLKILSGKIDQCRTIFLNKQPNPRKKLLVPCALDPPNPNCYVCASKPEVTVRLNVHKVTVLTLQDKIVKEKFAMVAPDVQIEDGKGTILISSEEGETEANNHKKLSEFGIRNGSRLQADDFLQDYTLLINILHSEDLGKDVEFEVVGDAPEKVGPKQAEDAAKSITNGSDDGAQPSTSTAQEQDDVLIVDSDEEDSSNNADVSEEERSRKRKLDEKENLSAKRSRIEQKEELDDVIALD

SUMO-activating enzyme [16] = target: T3, SUMO-activating enzyme; assay: inhibitors of in vitro SUMOylation cascade, primary screen, biochemical, HTRF, uHTS (AID 2006); type: protein-complex assay
[17] = target: Intestinal-type alkaline phosphatase (Homo sapiens, UniProt P09923); assay: inhibition of human intestinal alkaline phosphatase – biochemical, dose response (AID 488876); type: functional
Chain of Intestinal-type alkaline phosphatase (P09923 whole entry): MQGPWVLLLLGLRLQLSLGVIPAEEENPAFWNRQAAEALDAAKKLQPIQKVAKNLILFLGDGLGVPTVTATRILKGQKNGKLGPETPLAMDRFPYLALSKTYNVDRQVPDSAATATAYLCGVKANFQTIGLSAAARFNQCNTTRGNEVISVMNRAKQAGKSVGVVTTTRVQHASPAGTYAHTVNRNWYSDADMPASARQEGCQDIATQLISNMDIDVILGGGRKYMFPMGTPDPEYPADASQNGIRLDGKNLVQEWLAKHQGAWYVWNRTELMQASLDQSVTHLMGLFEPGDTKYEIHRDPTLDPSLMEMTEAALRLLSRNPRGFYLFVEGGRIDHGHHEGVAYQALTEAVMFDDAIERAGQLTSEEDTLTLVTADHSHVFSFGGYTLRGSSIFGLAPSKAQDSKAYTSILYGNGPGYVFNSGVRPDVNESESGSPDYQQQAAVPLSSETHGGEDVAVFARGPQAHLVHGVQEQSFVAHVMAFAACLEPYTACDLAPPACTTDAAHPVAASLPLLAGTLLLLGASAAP
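Throughout, for CC50: cells exposed to compound for 72 hours before luminescence readout.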

Chain of Serine/threonine-protein kinase Chk1 (O14757 whole entry): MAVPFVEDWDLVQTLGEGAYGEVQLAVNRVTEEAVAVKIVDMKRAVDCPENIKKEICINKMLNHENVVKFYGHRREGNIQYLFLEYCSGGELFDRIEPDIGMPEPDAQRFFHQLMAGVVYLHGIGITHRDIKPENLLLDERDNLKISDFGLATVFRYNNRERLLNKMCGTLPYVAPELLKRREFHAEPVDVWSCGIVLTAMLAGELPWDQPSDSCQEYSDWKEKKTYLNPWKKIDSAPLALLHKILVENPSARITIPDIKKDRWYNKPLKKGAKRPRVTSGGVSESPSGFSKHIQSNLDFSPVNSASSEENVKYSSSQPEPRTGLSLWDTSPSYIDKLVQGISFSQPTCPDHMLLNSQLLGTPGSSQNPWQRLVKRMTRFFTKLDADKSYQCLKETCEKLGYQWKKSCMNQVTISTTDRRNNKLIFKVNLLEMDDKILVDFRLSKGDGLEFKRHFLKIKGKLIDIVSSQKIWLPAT

Cc1ccc(-c2cc(-c3cc(Br)ccc3O)[nH]c(=O)c2C#N)s1
Ki [1]: > 3.16 µM (inactive)
Ki [2]: > 100 µM (inactive)

CCCC(=O)NC(c1cccs1)c1cc(Cl)c2cccnc2c1O (stereo not drawn)
AC50 [3]: 6.73 µM (active)
EC50 [4]: > 150 µM (inactive)
EC50 (cells): > 350 µM (not active)
IC50 [5]: > 119 µM (inactive)
AC50 [6]: 15 µM (active)

O=C(Nc1cccc(C2Nc3ccc4ccccc4c3C3C=CCC32)c1)c1ccc(F)cc1 (stereo not drawn)
Ki [7]: 1.58 µM (active)
Ki [8]: 1 µM (active)
Ki [9]: > 3.98 µM (inactive)
Ki (Focal adhesion kinase 1): > 6.31 µM (inactive)
Ki [10]: > 5.01 µM (inactive)

Cc1ccc(C(=O)OCn2ncc(Cl)c(Cl)c2=O)cc1
AC50 [11]: 4.05 µM (active)
AC50 [12]: 4.47 µM (active)
CC50 [13]: 2.85 µM (active)
IC50 [14]: 17.4 µM (inactive)
IC50 (Orexin receptor type 2): > 88.8 µM (inactive)
IC50 (CHO): 1.53 µM (active)
IC50 (CHO-K1): > 66.2 µM (inactive)
EC50 (Protein RecA): 924 nM (active)

O=C(O)CC(C(=O)O)N1C(=O)/C(=C/C=C/c2ccco2)SC1=S (stereo not drawn)
IC50 (SUMO-activating enzyme [15]): 1.12 µM (active)
IC50 (SUMO-activating enzyme [16]): 13.7 µM (active)
IC50 [17]: > 100 µM (inactive)

— ChEMBL document CHEMBL1201862, “PubChem BioAssay data set” (2004)
